Assays:
Type in all cases: cell-based
[1] = test system: alpha-smooth muscle actin (α-SMA); experiment: Inhibition of TGF-β induced expression of alpha-smooth muscle actin in CFSC cells (western blot); conditions: compound at 10 μM, TGF-β (10 ng/mL), 24 hours
Method in brief: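 Rat CCl4-treated hepatic stellate (CFSC) cells in serum-free DMEM were given compound at 10 μM plus TGF-β 10 ng/mL for 24 h at 37 °C. α-SMA measured by western blot with β-actin, bands quantified densitometrically. Percent inhibition is the decrease in band intensity versus TGF-β alone.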

[2] = test system: A431 (epidermoid carcinoma); experiment: Antiproliferative activity, CCK-8 cell viability; conditions: Homo sapiens, A-431, 72 h, read-out: Inhibition of Cancerous Cells, A431; for inhibition at 3.3 µM: compound concentration of 3.3 μM; for inhibition at 10 µM: compound concentration of 10 μM; for inhibition at 30 µM: compound concentration of 30 μM
Method in brief: (§1)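 Cells in DMEM with 10% FBS were treated with compound at 3.3, 10 or 30 μM for 72 h at 37°C. Viability was read by CCK-8 absorbance at 450 nm and expressed relative to DMSO-treated cells. Growth inhibition was binned as ≥50%, 30–50% or <30%.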

[3] = test system: A549 (lung adenocarcinoma); experiment: Antiproliferative activity, CCK-8 cell viability; conditions: Homo sapiens, 72 h, read-out: Inhibition of Cancerous Cells, A549; for inhibition at 3.3 µM: compound concentration of 3.3 μM; for inhibition at 10 µM: compound concentration of 10 μM; for inhibition at 30 µM: compound concentration of 30 μM
[4] = test system: B16F10 (malignant melanoma); experiment: Antiproliferative activity, CCK-8 cell viability; conditions: Mus musculus, B16-F10, 72 h, read-out: Inhibition of Cancerous Cells, B16F10; for inhibition at 3.3 µM: compound concentration of 3.3 μM; for inhibition at 10 µM: compound concentration of 10 μM; for inhibition at 30 µM: compound concentration of 30 μM
Method in brief: as §1

HeLa (cervical cancer) = experiment: Antiproliferative activity, CCK-8 cell viability; conditions: Homo sapiens, 72 h, read-out: Inhibition of Cancerous Cells, HELA; for inhibition at 3.3 µM: compound concentration of 3.3 μM; for inhibition at 10 µM: compound concentration of 10 μM; for inhibition at 30 µM: compound concentration of 30 μM
HepG2 (liver cancer) = experiment: Antiproliferative activity, CCK-8 cell viability; conditions: Homo sapiens, 72 h, read-out: Inhibition of Cancerous Cells, HepG2; for inhibition at 3.3 µM: compound concentration of 3.3 μM; for inhibition at 10 µM: compound concentration of 10 μM; for inhibition at 30 µM: compound concentration of 30 μM
Method in brief: as §1

[5] = test system: MDA-MB-231 (breast cancer); experiment: Antiproliferative activity, CCK-8 cell viability; conditions: Homo sapiens, 72 h, read-out: Inhibition of Cancerous Cells, MDA-MB-231; for inhibition at 3.3 µM: compound concentration of 3.3 μM; for inhibition at 10 µM: compound concentration of 10 μM; for inhibition at 30 µM: compound concentration of 30 μM
Method in brief: as §1

SW480 (colon cancer) = experiment: Antiproliferative activity, CCK-8 cell viability; conditions: Homo sapiens, 72 h, read-out: Inhibition of Cancerous Cells, SW480; for inhibition at 3.3 µM: compound concentration of 3.3 μM; for inhibition at 10 µM: compound concentration of 10 μM; for inhibition at 30 µM: compound concentration of 30 μM
Method in brief: as §1

SMILES: CC1=C(CC(=O)O)c2cc(F)ccc2/C1=C\c1cccc(Oc2cccc(C(F)(F)F)c2)c1 [Compound D27, 2-[(1Z)-5-Fluoro-2-methyl-1-({3-[3-trifluoromethylphenoxy]phenyl}-methylidene)-1H-inden-3-yl]acetic acid]
- inhibition at 10 µM [1]: ≥ 80%
- inhibition at 3.3 µM [2]: < 30%
- inhibition at 10 µM [2]: ≥ 50%
- inhibition at 30 µM [2]: ≥ 50%
- inhibition at 3.3 µM [3]: 30 to 50%
- inhibition at 10 µM [3]: 30 to 50%
- inhibition at 30 µM [3]: ≥ 50%
- inhibition at 3.3 µM [4]: < 30%
- inhibition at 10 µM [4]: 30 to 50%
- inhibition at 30 µM [4]: ≥ 50%
- inhibition at 3.3 µM (HeLa (cervical cancer)): < 30%
- inhibition at 10 µM (HeLa (cervical cancer)): 30 to 50%
- inhibition at 30 µM (HeLa (cervical cancer)): ≥ 50%
- inhibition at 3.3 µM (HepG2 (liver cancer)): ≥ 50%
- inhibition at 10 µM (HepG2 (liver cancer)): ≥ 50%
- inhibition at 30 µM (HepG2 (liver cancer)): ≥ 50%
- inhibition at 3.3 µM [5]: ≥ 50%
- inhibition at 10 µM [5]: ≥ 50%
- inhibition at 30 µM [5]: ≥ 50%
- inhibition at 3.3 µM (SW480 (colon cancer)): 30 to 50%
- inhibition at 10 µM (SW480 (colon cancer)): ≥ 50%
- inhibition at 30 µM (SW480 (colon cancer)): ≥ 50%

SMILES: COc1cccc2c1C(CC(=O)O)=C(C)/C2=C/c1ccc(COc2ccccc2)cc1 [Compound A11]
- inhibition at 10 µM [1]: < 30%
- inhibition at 3.3 µM [2]: ≥ 50%
- inhibition at 10 µM [2]: ≥ 50%
- inhibition at 30 µM [2]: ≥ 50%
- inhibition at 3.3 µM [3]: 30 to 50%
- inhibition at 10 µM [3]: 30 to 50%
- inhibition at 30 µM [3]: 30 to 50%
- inhibition at 3.3 µM [4]: ≥ 50%
- inhibition at 10 µM [4]: ≥ 50%
- inhibition at 30 µM [4]: ≥ 50%
- inhibition at 3.3 µM (HeLa (cervical cancer)): < 30%
- inhibition at 10 µM (HeLa (cervical cancer)): < 30%
- inhibition at 30 µM (HeLa (cervical cancer)): < 30%
- inhibition at 3.3 µM (HepG2 (liver cancer)): 30 to 50%
- inhibition at 10 µM (HepG2 (liver cancer)): ≥ 50%
- inhibition at 30 µM (HepG2 (liver cancer)): ≥ 50%
- inhibition at 3.3 µM [5]: < 30%
- inhibition at 10 µM [5]: 30 to 50%
- inhibition at 30 µM [5]: ≥ 50%
- inhibition at 3.3 µM (SW480 (colon cancer)): ≥ 50%
- inhibition at 10 µM (SW480 (colon cancer)): ≥ 50%
- inhibition at 30 µM (SW480 (colon cancer)): ≥ 50%

SMILES: CC1=C(CC(=O)O)c2cc(F)ccc2/C1=C\c1ccc(Oc2ccc(F)cc2)cc1C(F)(F)F [Compound D12, 2-[(1Z)-1-{[2-Trifluoromethyl-4-(4-fluorophenoxy)phenyl]methylidene}-5-fluoro-2-methyl-1H-inden-3-yl]acetic acid]
- inhibition at 10 µM [1]: < 30%
- inhibition at 3.3 µM [2]: 30 to 50%
- inhibition at 10 µM [2]: ≥ 50%
- inhibition at 30 µM [2]: ≥ 50%
- inhibition at 3.3 µM [3]: 30 to 50%
- inhibition at 10 µM [3]: ≥ 50%
- inhibition at 30 µM [3]: ≥ 50%
- inhibition at 3.3 µM [4]: < 30%
- inhibition at 10 µM [4]: ≥ 50%
- inhibition at 30 µM [4]: ≥ 50%
- inhibition at 3.3 µM (HeLa (cervical cancer)): < 30%
- inhibition at 10 µM (HeLa (cervical cancer)): < 30%
- inhibition at 30 µM (HeLa (cervical cancer)): < 30%
- inhibition at 3.3 µM (HepG2 (liver cancer)): ≥ 50%
- inhibition at 10 µM (HepG2 (liver cancer)): ≥ 50%
- inhibition at 30 µM (HepG2 (liver cancer)): ≥ 50%
- inhibition at 3.3 µM [5]: ≥ 50%
- inhibition at 10 µM [5]: ≥ 50%
- inhibition at 30 µM [5]: ≥ 50%
- inhibition at 3.3 µM (SW480 (colon cancer)): 30 to 50%
- inhibition at 10 µM (SW480 (colon cancer)): ≥ 50%
- inhibition at 30 µM (SW480 (colon cancer)): ≥ 50%
